Data on 15 molecules can be found in patent US5686486A, “4-hydroxy-benzopyran-2-ones and 4-hydroxy-cycloalkyl[b]pyran-2-ones useful to treat retroviral infections” (priority 1995, dated 1997).

“And” between values parts separate entries of the source, which are not always exact repeats. Equal entries are not always repeated.

Assay [1] deals with T1, HIV-1 protease (Human immunodeficiency virus type 1 group M subtype B, UniProt P04585). Put plainly: biochemical. The conditions noted are these: for inhibition at 0.123 µM: read-out: HIV-1 Protease % Inhib, dose 0.123 uM; for inhibition at 0.37 µM: read-out: HIV-1 Protease % Inhib, dose 0.370 uM; for inhibition at 1.1 µM: read-out: HIV-1 Protease % Inhib, dose 1.100 uM; for inhibition at 3.3 µM: read-out: HIV-1 Protease % Inhib, dose 3.300 uM; for inhibition at 10 µM: read-out: HIV-1 Protease % Inhib, dose 10.000 uM; for inhibition at 30 µM: read-out: HIV-1 Protease % Inhib, dose 30.000 uM. The procedure, abridged:
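Biotinylated, FITC-labeled peptide substrate (20 μl of 0.2 μM) incubated with HIV-1 protease (10 μl of 0.1 μM) and compound in 0.1 M sodium acetate pH 5.5, 1.0 M NaCl, 0.05% NP-40, 1 h, room temperature, dark. Streptavidin beads then capture uncleaved substrate; filtered labeled product read by fluorescence, giving percent inhibition.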

Assay [2] deals with T1, HIV-1 protease. The experiment in a line: biochemical. To be noted: read-out: HIV-1 FITC KI. The procedure, abridged:
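Ki from two-fold serial inhibitor dilutions (24–48 concentrations) with 40 nM HIV-1 protease stock and 200 μM substrate stock, 90 min at room temperature; stopped with avidin beads. Reference inhibitor run in parallel; Ki by nonlinear least-squares fit.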

For `O=C(Nc1cccc(C(c2c(O)c3c(oc2=O)CCCCCC3)C2CC2)c1)c1ccc(F)cc1` (centres unmarked) [Example 210, Benzamide, N-[3-[cyclopropyl(5,6,7,8,9,10-hexahydro4-hydroxy-2-oxo-2H-cycloocta[b]pyran-3-yl)methyl]phenyl]-4-fluoro-], on HIV-1 protease [1], the inhibition at 0.123 µM was 19.7%, the inhibition at 0.37 µM worked out at 31.5%, the inhibition at 1.1 µM turned out to be 58.1% and the inhibition at 3.3 µM turned out to be 77.6%. Further, at HIV-1 protease [1], the inhibition at 10 µM was determined as 88.8% and the inhibition at 30 µM worked out at 97.3%. At HIV-1 protease [2], the Ki (in general, a measure of affinity in units of concentration, obtained from inhibition or displacement) amounted to 55 nM.
Take `O=C(Nc1cccc(C(c2c(O)c3c(oc2=O)CCCCCC3)C2CC2)c1)c1ccccc1` (centres unmarked) [Example 211, Benzamide, N-[3-[cyclopropyl(5,6,7,8,9,10-hexahydro-4-hydroxy-2-oxo-2H-cycloocta[b]pyran-3-yl)methyl]phenyl]]: at HIV-1 protease [1], the inhibition at 0.37 µM came to 37.2%, the inhibition at 1.1 µM worked out at 64.5%, the inhibition at 3.3 µM was 89.6% and the inhibition at 10 µM amounted to 101%. Further, the inhibition at 30 µM on HIV-1 protease [1] was determined as 101%. Further, the Ki on HIV-1 protease [2] came out at 42 nM.
As to `CC(C)(C)OC(=O)N[C@@H](Cc1c[nH]cn1)C(=O)Nc1cccc(C(c2c(O)c3c(oc2=O)CCCCCC3)C2CC2)c1` (stereo partly drawn) [Example 213, Carbamic acid, [2-[[3-[cyclopropyl(5,6,7,8,9,10-hexahydro-4-hydroxy-2-oxo-2H-cycloocta[b]pyran-3-yl)methyl]phenyl]amino]-1-(S)-(1H-imidazol-4-ylmethyl)-2-oxoethyl]-, 1,1-dimethylethyl ester], on HIV-1 protease [1] (dose 0.123 uM), the “HIV-1 Protease % Inhib” value worked out at 74.4%. In addition, on HIV-1 protease [1], the inhibition at 0.37 µM was 82.2%, the inhibition at 1.1 µM amounted to 94.5%, the inhibition at 3.3 µM came to 102% and the inhibition at 10 µM was determined as 109%. On HIV-1 protease [1], the inhibition at 30 µM was determined as 99.3%. Further, the Ki at HIV-1 protease [2] came to 3.5 nM.
Take `CC(C)(C)OC(=O)NCCC(=O)Nc1cccc(C(c2c(O)c3c(oc2=O)CCCCC3)C2CC2)c1` (centres unmarked) [Example 214, Carbamic acid. [3-[[3-[cyclopropyl(2,5,6,7,8,9-hexahydro-4-hydroxy-2-oxocyclohepta[b]pyran-3-yl)methyl]phenyl]amino]-3-oxopropyl]-, 1,1-dimethylethyl ester]: at HIV-1 protease [1], the inhibition at 0.123 µM stood at 18.7%, the inhibition at 0.37 µM came to 54%, the inhibition at 1.1 µM worked out at 74.1% and the inhibition at 3.3 µM turned out to be 88.6%. In addition, at HIV-1 protease [1], the inhibition at 10 µM was found to be 95.2% and the inhibition at 30 µM came out at 96.2%. Further, the Ki at HIV-1 protease [2] was 19.3 nM.
`O=C(CCn1ccc2ccccc21)Nc1cccc(C(c2c(O)c3c(oc2=O)CCCCC3)C2CC2)c1` (centres unmarked) [Example 215, 1H-Indole-1-propanamide, N-[3-[cyclopropyl(2,5,6,7,8,9-hexahydro-4-hydroxy-2-oxocyclohepta[b]pyran-3-yl)methyl]phenyl]-]: at HIV-1 protease [1], the inhibition at 0.123 µM is 13.5%, the inhibition at 0.37 µM was 43.3%, the inhibition at 1.1 µM was found to be 76.1% and the inhibition at 3.3 µM came out at 97.9%. Moreover, on HIV-1 protease [1], the inhibition at 10 µM was found to be 107% and the inhibition at 30 µM worked out at 98.5%. Also, the Ki at HIV-1 protease [2] is 27.8 nM.
In the case of `CCC(c1cccc(NC(=O)CCNC(=O)OC(C)(C)C)c1)c1c(O)c2c(oc1=O)CCCCCC2` (centres unmarked) [Example 219, Carbamic acid, [3-[[3-[1-(5,6,7,8,9,10-hexahydro4-hydroxy-2-oxo-2H-cycloocta[b]pyran-3-yl)propyl]phenyl]amino]-3-oxopropyl]-, 1,1-dimethylethyl ester], at HIV-1 protease [1], the inhibition at 0.123 µM is 52.1%, the inhibition at 0.37 µM was found to be 81%, the inhibition at 1.1 µM came to 92.5% and the inhibition at 3.3 µM was determined as 100%. For the same molecule, at HIV-1 protease [1], the inhibition at 10 µM is 109% and the inhibition at 30 µM worked out at 97.3%. The Ki on HIV-1 protease [2] stood at 10.4 nM.
In the case of `CCOC(=O)Nc1cccc(C(c2c(O)c3c(oc2=O)CCCCCC3)C2CC2)c1` (centres unmarked) [Example 226, [3-[Cyclopropyl(5,6,7,8,9,10-hexahydro4-hydroxy-2-oxo-2H-cycloocta[b]pyran-3-yl)methyl]phenyl]-, ethyl ester carbamic acid], at HIV-1 protease [1], the inhibition at 0.123 µM amounted to 14.2%, the inhibition at 0.37 µM is 43.7%, the inhibition at 1.1 µM stood at 74.1% and the inhibition at 3.3 µM came out at 87.6%. At HIV-1 protease [1], the inhibition at 10 µM came out at 101% and the inhibition at 30 µM was 104%. For the same molecule, the Ki at HIV-1 protease [2] was determined as 18.9 nM.
In the case of `O=c1oc2c(c(O)c1[C@H](c1ccccc1)C1CC1)CCCCCC2` [Example 229, (-)-(S)-3-(Cyclopropylphenylmethyl)-5,6,7,8,9,10-hexahydro-4-hydroxy-2H-cyclo[b]pyran-2-one], on HIV-1 protease [1], the inhibition at 0.123 µM came to 16.9%, the inhibition at 0.37 µM turned out to be 54.3%, the inhibition at 1.1 µM came to 88.8% and the inhibition at 3.3 µM is 103%. In addition, at HIV-1 protease [1], the inhibition at 10 µM was 108% and the inhibition at 30 µM stood at 105%. Also, the Ki on HIV-1 protease [2] was 10.6 nM and 11.9 nM and 16.2 nM.
Regarding `O=c1oc2c(c(O)c1[C@H](c1cccc(NS(=O)(=O)c3ccc(F)cc3)c1)C1CC1)CCCCCC2` [Example 252, (-)-N-[3-[Cyclopropyl(5,6,7,8,9,10-hexahydro4-hydroxy-2-oxo-2H-cycloocta[b]pyran-3-yl)methyl]phenyl]-4-fluoro-benzenesulfonamide], at HIV-1 protease [1], the inhibition at 0.123 µM came to 100%, the inhibition at 0.37 µM came to 108%, the inhibition at 1.1 µM was found to be 111% and the inhibition at 3.3 µM stood at 112%. In addition, at HIV-1 protease [1], the inhibition at 10 µM amounted to 116% and the inhibition at 30 µM amounted to 109%. Also, the Ki on HIV-1 protease [2] was 1.6 nM and 1.1 nM.
As to `Cn1cnc(S(=O)(=O)Nc2cccc([C@@H](c3c(O)c4c(oc3=O)CCCCCC4)C3CC3)c2)c1` [Example 254, (-)-N-[3-[Cyclopropyl(5,6,7,8,9,10-hexahydro-4-hydroxy-2-oxo-2H-cycloocta[b]pyran-3-yl)methyl]phenyl]-1-methyl-1H-imidazole-4-sulfonamide], the “HIV-1 Protease % Inhib” value stood at 82.28% at HIV-1 protease [1] (dose 0.123 uM); 97.98% on HIV-1 protease [1] (dose 0.370 uM); 107.75% at HIV-1 protease [1] (dose 1.100 uM); 111.05% on HIV-1 protease [1] (dose 3.300 uM); 112.1% at HIV-1 protease [1] (dose 10.000 uM); 103.1% on HIV-1 protease [1] (dose 30.000 uM). The Ki at HIV-1 protease [2] turned out to be 0.65 nM.
With `O=c1oc2c(c(O)c1[C@H](c1cccc(NS(=O)(=O)c3cccc4cccnc34)c1)C1CC1)CCCCCC2` [Example 256, (-)-N-[3-[Cyclopropyl(5,6,7,8,9,10-hexahydro-4-hydroxy-2-oxo-2H-cycloocta[b]pyran-3-yl)methyl]phenyl]-8-quinolinesulfonamide], at HIV-1 protease [1], the inhibition at 0.123 µM was 82.5%, the inhibition at 0.37 µM stood at 91.3%, the inhibition at 1.1 µM came out at 99% and the inhibition at 3.3 µM was determined as 95%. Besides, at HIV-1 protease [1], the inhibition at 10 µM was 101% and the inhibition at 30 µM came out at 96.1%. For the same molecule, the Ki on HIV-1 protease [2] came out at 0.42 nM.
As to `O=c1oc2c(c(O)c1[C@@H](c1cccc(NS(=O)(=O)c3cccc4cccnc34)c1)C1CC1)CCCCCC2` [Example 260, (+)-N-[3-[Cyclopropyl(5,6,7,8,9, 10-hexahydro-4-hydroxy-2-oxo-2H-cycloocta[b]pyran-3-yl)methyl]phenyl]-8-quinolinesulfonamide], at HIV-1 protease [1], the inhibition at 0.123 µM was found to be 73.8%, the inhibition at 0.37 µM is 91.7%, the inhibition at 1.1 µM was found to be 99% and the inhibition at 3.3 µM stood at 106%. In addition, on HIV-1 protease [1], the inhibition at 10 µM was determined as 102% and the inhibition at 30 µM was determined as 96.9%. At HIV-1 protease [2], the Ki is 0.93 nM.
Turning to `CC(C)(C)c1ccc(S(=O)(=O)Nc2cccc(C(c3c(O)c4c(oc3=O)CCCCCC4)C3CC3)c2)cc1` (centres unmarked) [Example 265, N-[3-[Cyclopropyl(5,6,7,8,9,10-hexahydro-4hydroxy-2-oxo-2H-cycloocta[b]pyran-3-yl)methyl]phenyl]-4-(1,1-dimethylethyl)-benzenesulfonamide], on HIV-1 protease [1], the inhibition at 0.123 µM came to 25.3%, the inhibition at 0.37 µM was 54.8%, the inhibition at 1.1 µM worked out at 76.9% and the inhibition at 3.3 µM was found to be 86.1%. Further, on HIV-1 protease [1], the inhibition at 10 µM amounted to 100% and the inhibition at 30 µM worked out at 98.3%. Besides, the Ki on HIV-1 protease [2] amounted to 31.5 nM.
Regarding `O=c1oc2c(c(O)c1C(c1cccc(NS(=O)(=O)c3ccc(Cl)c(Cl)c3)c1)C1CC1)CCCCCC2` (centres unmarked) [Example 269, 3,4-Dichloro-N-[3-[cyclopropyl(5,6,7,8,9,10-hexahydro-4-hydroxy-2-oxo-2H-cycloocta[b]pyran-3-yl)methyl]phenyl]-benzenesulfonamide], on HIV-1 protease [1], the inhibition at 0.123 µM was found to be 77.1%, the inhibition at 0.37 µM worked out at 95.7%, the inhibition at 1.1 µM stood at 112% and the inhibition at 3.3 µM is 114%. Further, on HIV-1 protease [1], the inhibition at 10 µM came to 125% and the inhibition at 30 µM was determined as 114%. Besides, the inhibitory constant (Ki) at HIV-1 protease [2] was 5.3 nM and 2.9 nM.
`O=c1oc2c(c(O)c1C(c1cccc(NS(=O)(=O)c3c(F)c(F)c(F)c(F)c3F)c1)C1CC1)CCCCCC2` (centres unmarked) [Example 278, N-[3-[Cyclopropyl(5,6,7,8,9,10-hexahydro-4-hydroxy-2-oxo-2H-cycloocta[b]pyran-3-yl)methyl]phenyl]-2,3,4,5,6-pentafluoro-benzenesulfonamide]: on HIV-1 protease [1], the inhibition at 0.123 µM worked out at 36.3%, the inhibition at 0.37 µM was 78.2%, the inhibition at 1.1 µM turned out to be 94.7% and the inhibition at 3.3 µM came out at 101%. For the same molecule, at HIV-1 protease [1], the inhibition at 10 µM was 102% and the inhibition at 30 µM stood at 110%. Further, the Ki at HIV-1 protease [2] was determined as 13.6 nM.
